Assay results: US11524956B2, “Alkyne substituted quinazoline compound and methods of use” (Newgen Therapeutics, Inc., priority 2011, dated 2022)
Like-named read-outs stand apart in the source and are kept apart here.

What was measured:
[1] = target: EGFR kinase (Homo sapiens (Human), UniProt P00533); assay: Kinase assay for EGFR (TR-FRET, LanthaScreen); type: biochemical; conditions: read-out: Kinase inhibition IC50 (nM) EGFR
Experimental: The extent to which the compounds of the present invention modulate EGFR kinase activity can be determined using time-resolved Fret (TR-FRET) assay (LanthaScreen® kinase activity assay, from InVitrogen). The assay employs EGFR kinase (PV3872, Invitrogen), Tb-Py20 antibody (PV3552, InVitrogen) and fluorescein-poly GT (PV3610, InVitrogen).
The assay is performed in a Black 384-well plate (available from Corning). EGFR kinase (is diluted in TR-FRET Dilution Buffer (PV3189, InVitrogen) at concentration of 0.4 ug/ml as stock solution, and then 2-fold serial diluted. Addition of 1 mM ATP initiated the reaction, and the reaction is incubated for […] at room temperature. 10 μL of the Tb-antibody (from InVitrogen)+EDTA (from InVitrogen) solution prepared was added to each well of the assay plate and mix briefly, and incubated for 30 min. The signal is monitored by using M5 microplate reader (Ex=332 nm, Em=488 nm and 518 nm). Each compound is tested in duplicate wells. EGFR without compound is used as control. Staurosporine (available from Sigma) is used as positive control compound. Inhibition was calculated as percentage of the EGFR activity (without compound).

[2] = target: ErbB2 kinase protein (Homo sapiens (Human), UniProt P04626); assay: Kinase assay for ErbB2; type: biochemical; conditions: read-out: Kinase inhibition IC50 (nM) ErbB2
Chain of ErbB2 kinase protein (P04626 23-1255): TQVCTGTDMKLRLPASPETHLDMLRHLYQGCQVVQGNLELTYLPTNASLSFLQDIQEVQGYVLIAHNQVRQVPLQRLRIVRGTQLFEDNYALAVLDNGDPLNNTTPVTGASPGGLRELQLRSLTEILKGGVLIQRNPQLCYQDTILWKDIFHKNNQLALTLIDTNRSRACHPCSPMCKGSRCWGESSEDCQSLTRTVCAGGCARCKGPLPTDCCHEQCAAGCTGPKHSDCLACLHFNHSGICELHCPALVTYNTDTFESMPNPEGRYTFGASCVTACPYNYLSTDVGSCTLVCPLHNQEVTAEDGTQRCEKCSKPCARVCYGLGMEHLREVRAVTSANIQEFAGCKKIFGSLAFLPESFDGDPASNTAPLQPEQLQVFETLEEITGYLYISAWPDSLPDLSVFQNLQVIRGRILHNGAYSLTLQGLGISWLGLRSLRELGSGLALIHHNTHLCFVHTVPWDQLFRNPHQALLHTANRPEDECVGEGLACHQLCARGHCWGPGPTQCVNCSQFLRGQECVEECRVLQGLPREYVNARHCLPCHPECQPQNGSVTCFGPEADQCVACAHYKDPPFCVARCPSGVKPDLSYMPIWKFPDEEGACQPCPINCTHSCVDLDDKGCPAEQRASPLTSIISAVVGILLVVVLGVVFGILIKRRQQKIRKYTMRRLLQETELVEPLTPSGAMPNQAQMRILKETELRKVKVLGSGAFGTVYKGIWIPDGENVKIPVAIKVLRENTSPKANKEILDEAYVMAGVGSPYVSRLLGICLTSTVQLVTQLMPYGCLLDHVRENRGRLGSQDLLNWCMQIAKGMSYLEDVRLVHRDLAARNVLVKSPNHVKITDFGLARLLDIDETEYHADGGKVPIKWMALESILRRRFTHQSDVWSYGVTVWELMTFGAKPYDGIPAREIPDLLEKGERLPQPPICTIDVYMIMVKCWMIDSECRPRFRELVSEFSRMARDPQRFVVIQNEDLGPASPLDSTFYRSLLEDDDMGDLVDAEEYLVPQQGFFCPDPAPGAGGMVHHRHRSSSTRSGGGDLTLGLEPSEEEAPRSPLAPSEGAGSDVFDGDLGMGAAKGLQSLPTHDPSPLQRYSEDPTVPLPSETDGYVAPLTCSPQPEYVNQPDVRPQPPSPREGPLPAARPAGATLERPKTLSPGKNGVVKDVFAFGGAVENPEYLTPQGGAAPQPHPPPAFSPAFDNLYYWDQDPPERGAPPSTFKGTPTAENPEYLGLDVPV
Experimental: The assay is performed similarly to the kinase assay for […] as described above, except ErbB2 kinase protein is used instead of EGFR kinase protein.

[3] = system: H1975 xenograft; assay: In vivo efficacy in NCI-H1975 xenograft mouse model; design: species or system Balb/c nude mice; conditions: KU113 10 and 20 mg/kg po qd; afatinib 20 mg/kg; erlotinib 100 mg/kg
Experimental: H1975 cells were purchased from ATCC were cultured in RPMI1640±10% FBS-1% P/S antibiotics. Balb/c nude mice, female, 6-8 week, 18+2 g were purchased from. Shanghai Laboratory Animal Co. Ltd. The purchased mice were adapted to the environment for 7 days before use, and were housed at 22-25° C. with humidity 40-70%, and light cycle with fluorescent light for 12-hour light (8:00-20:00) 12-hour dark.
Formulation: Erlotinib, afatinib (BIBW2992), and KU113 were dissolved in 2% DMA and 98% (40% HP-β-CD deionized water).
The cancer cells (H1975) were amplified and implanted into the nude mice (right flank) with 5.0×10^6 cells in PBS and 1:1 with matrigel in a total volume of 0.1 ml/mouse. […]
The mice were monitored twice daily for appearance and behavior, and for signs of morbidity and/or mortality. The tumor volume was measured twice a week, and the body weight was measured immediately before measuring the tumor volume throughout the whole study. […]
Tumor sizes were measured twice weekly in two dimensions using a caliper, and the volume was expressed in mm^3 using the formula: V=½×a×b^2 where a and b are the long and short diameters of the tumor, respectively. […]

[4] = Rat brain concentration; type: in vivo, Sprague Dawley rats; conditions: Sprague Dawley, po, P.O. 5 mg/Kg; for concentration at 2 h / concentration at 4 h / concentration at 24 h: brain, 5 mg/kg
Experimental: Brain concentration: Three rats are for brain collection (2h) only. Three rats are for brain collection (4 h) only. The rest 3 rats are for plasma (9 time points) and brain collection (24h).
Brain Collection and Tissue Processing: Post blood collection, the brain was first perfused intracardially with ˜150 mL of ice-cold, 0.1 M Phosphate Buffered Saline (PBS) at pH7.4. Then, the dura was removed before weighing the brain. The brain was then dissected into smaller pieces, rinsed twice with ˜10 mL PBS, and then flash frozen on dry ice, and stored at −80° C. before analysis.
Before tissue processing, rat brains were thawed. For the preparation of analytical standards, purchased frozen rat brains (from Pelfreez) were similarly thawed, dissected, rinsed with PBS, and 100 μL of Compound A stock solution (at 500 ng/mL and 1, 2 5, 10, and 50 μg/mL in acetonitrile) was spiked directly into the tissue. Both Compound A dosed and spiked brains then underwent the same processing procedures described below.
Briefly, 2 mL of water was added to each brain before homogenization. Homogenize the brain in 2 to 3 sessions, each approximately 15 sec. The mechanical probe of the homogenizer was cleansed in water, 70% ethanol, and ethyl acetate after each sample. The resulting brain homogenates were then extracted with ethyl acetate three times (14 mL total), and centrifuged to separate the aqueous and organic phases after each extraction. Per brain, pooled organic phase were evaporated under a stream of nitrogen at 40° C. and the residues were reconstituted with 4 mL of mobile phase B. Compound A spiked brain samples in the 4 mL solutions had final concentrations of 12.5, 25, 50, 125, 250, 1250 ng/mL. The reconstituted samples were incubated for ˜15 minutes at 60° C. and, vortexed for 10 minutes to fully dissolve the analytes. The samples were centrifuged, and then further diluted with Mobile phase B (shown below) before LC/MS/MS analysis. Dilute 20 μL of reconstituted samples with 1.5 mL mobile phase B. Transfer and inject supernatant to […] system for analysis.

Chain of EGFR kinase (P00533 668-1210): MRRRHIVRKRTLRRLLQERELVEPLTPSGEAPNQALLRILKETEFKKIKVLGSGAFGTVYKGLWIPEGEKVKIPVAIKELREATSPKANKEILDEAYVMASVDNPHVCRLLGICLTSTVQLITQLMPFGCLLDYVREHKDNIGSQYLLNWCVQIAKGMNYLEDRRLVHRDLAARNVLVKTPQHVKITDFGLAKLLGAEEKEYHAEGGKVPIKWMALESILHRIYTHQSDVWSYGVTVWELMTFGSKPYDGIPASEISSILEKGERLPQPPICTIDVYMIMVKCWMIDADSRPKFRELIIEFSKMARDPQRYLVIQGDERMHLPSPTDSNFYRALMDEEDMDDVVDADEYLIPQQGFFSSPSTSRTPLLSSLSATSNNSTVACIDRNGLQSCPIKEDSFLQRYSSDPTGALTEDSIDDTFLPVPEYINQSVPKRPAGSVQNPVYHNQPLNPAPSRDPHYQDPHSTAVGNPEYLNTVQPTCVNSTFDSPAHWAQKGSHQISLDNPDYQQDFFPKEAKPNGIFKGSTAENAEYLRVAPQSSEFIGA

For CN(C)C/C=C/C(=O)Nc1cc2c(Nc3ccc(F)c(Cl)c3)ncnc2cc1C#C[C@@H]1[C@H]2COC[C@@H]12 [Example 4, (E)-N-(4-(3-chloro-4-fluorophenylamino)-7-(2-((1R,5S,6s)-3-oxa-bicyclo[3.1.0]hexan-6-yl)ethynyl)quinazolin-6-yl)-4-(dimethylamino)but-2-enamide], the IC50 [1] was < 100 nM, the IC50 [2] was < 100 nM and the “anticancer effect on H1975 xenograft versus comparators” value [3] was “significantly more effective than erlotinib; and comparable with afatinib”. The concentration at 2 h ([4]; 2 hr, read-out: Brain Conc. (ng/g) Mean) was 156 ng/g, the concentration at 2 h ([4]; 2 hr, read-out: Brain Conc. (ng/g) No. 1) was 118 ng/g and the concentration at 2 h ([4]; 2 hr, read-out: Brain Conc. (ng/g) No. 2) was 156 ng/g. It also gave a concentration at 2 h ([4]; 2 hr, read-out: Brain Conc. (ng/g) No. 3) of 194 ng/g, a concentration at 4 h ([4]; 4 hr, read-out: Brain Conc. (ng/g) Mean) of 173 ng/g and a concentration at 4 h ([4]; 4 hr, read-out: Brain Conc. (ng/g) No. 1) of 127 ng/g. The concentration at 4 h ([4]; 4 hr, read-out: Brain Conc. (ng/g) No. 2) was 209 ng/g, the concentration at 4 h ([4]; 4 hr, read-out: Brain Conc. (ng/g) No. 3) was 185 ng/g and the concentration at 24 h ([4]; 24 hr, read-out: Brain Conc. (ng/g) Mean) was 17.6 ng/g. The concentration at 24 h ([4]; 24 hr, read-out: Brain Conc. (ng/g) No. 1) was 26 ng/g, the concentration at 24 h ([4]; 24 hr, read-out: Brain Conc. (ng/g) No. 2) was 11 ng/g and the concentration at 24 h ([4]; 24 hr, read-out: Brain Conc. (ng/g) No. 3) was 15.8 ng/g. For the same compound, the Kp at 2 h ([4]; brain/plasma, 2 hr, read-out: B/P ratio) was 4, the Kp at 4 h ([4]; brain/plasma, 4 hr, read-out: B/P ratio) was 4.4 and the Kp at 24 h ([4]; brain/plasma, 24 hr, read-out: B/P ratio) was 8.7.
